Reference: the supplement of paper PMC7801607

System: Plasmodium falciparum Dd2 asexual blood stage

Question: `O=C(O)C[C@H]1CC[C@H](c2ccc(-c3ccc(Nc4ccc(C(F)(F)F)nc4)cn3)cc2)CC1` was tested. Which IC50 did it give?
Answer: > 5 µM

Question: `Oc1ccc2[nH]c(-c3ccccc3)nc2c1` was tested. Which IC50 did it give?
Answer: > 5 µM

Question: With `O=c1oc2ccc(Br)cc2cc1CSc1ncc[nH]1` as the compound, how does the IC50 read?
Answer: > 5 µM

Question: How did the IC50 turn out when `Cc1c(N)cccc1Cn1ccc(OCCc2cccs2)cc1=O` was run?
Answer: > 5 µM

Question: `Nc1nc(=O)c(Br)c(-c2cccc(Cl)c2)[nH]1` was tested. Which IC50 did it give?
Answer: > 5 µM

Question: With `COCCn1cnc2c(=O)[nH]c(Nc3ccccc3)nc21` as the compound, how does the IC50 read?
Answer: > 5 µM

Question: How did the IC50 turn out when `C=C(C)[C@@H]1CC[C@]2(C(=O)O)CC[C@]3(C)[C@H](CC[C@@H]4[C@@]5(C)CC[C@H](O)C(C)(C)[C@@H]5CC[C@]43C)[C@@H]12` was run?
Answer: > 5 µM

Question: Which IC50 does the source give for `CCNC(=O)Nc1cn2c(-c3ncc(CC)cn3)cc(-c3cccnc3)cc2n1` here?
Answer: > 5 µM

Question: How did the IC50 turn out when `O=C(NN1C(=O)[C@@H]2C3C=CC([C@H]4C[C@@H]34)[C@@H]2C1=O)c1ccc(C(F)(F)F)cc1` was run?
Answer: > 5 µM

Question: For `O=C(NC(=O)N1CCCc2ccccc21)c1cccc(Cl)c1`, which IC50 is on record?
Answer: > 5 µM

Question: With `CCc1cc(CCCOc2c(C)cc(-c3noc(C(F)(F)F)n3)cc2C)on1` as the compound, how does the IC50 read?
Answer: > 5 µM

Question: For `CC(=O)Oc1ccccc1C(=O)Nc1ncc([N+](=O)[O-])s1`, which IC50 is on record?
Answer: > 5 µM

Question: For `CCN(CC)S(=O)(=O)c1ccc(Cl)c(C(=O)Nc2sc3c(c2C#N)CCCC3)c1`, which IC50 is on record?
Answer: > 5 µM

Question: How did the IC50 turn out when `CCn1cc(C(=O)O)c(=O)c2cc(F)c(N3CCNC(C)C3)c(F)c21` (stereo not drawn) was run?
Answer: > 5 µM

Question: `Clc1cc2nc(C3CCNCC3)n(Cc3ccc(CNCCc4cnc[nH]4)cc3)c2cc1Cl` was tested. Which IC50 did it give?
Answer: 2.41 µM

Question: How did the IC50 turn out when `CN(Cc1ccc(C(C)(C)C)cc1)Cc1cccc2ccccc12` was run?
Answer: > 5 µM

Question: How did the IC50 turn out when `O=C(Nc1nnc(-c2ccc(Cl)cc2)o1)c1ccc(F)cc1` was run?
Answer: > 5 µM

Question: Which IC50 does the source give for `Cc1cc(C)n(O)c(=O)c1` here?
Answer: > 5 µM

Question: How did the IC50 turn out when `O=C(O)c1cc(-c2ccccc2)nc2ccccc12` was run?
Answer: > 5 µM

Question: Which IC50 does the source give for `Nc1nc(O)c2ncn(COC(CO)CO)c2n1` here?
Answer: > 5 µM

Question: With `O=C(CSc1nnc(Br)n1-c1ccc(C2CC2)c2ccccc12)Nc1ccc(C(=O)O)cc1Cl` as the compound, how does the IC50 read?
Answer: > 5 µM

Question: Which IC50 does the source give for `COc1ccc(NC(=O)CC2Sc3ncnn3C2=O)cc1` (stereo not drawn) here?
Answer: > 5 µM

Question: How did the IC50 turn out when `O=C1CCC(N2C(=O)c3ccccc3C2=O)C(=O)N1` (stereo not drawn) was run?
Answer: > 5 µM

Question: How did the IC50 turn out when `C[C@H](Cn1cnc2c(N)ncnc21)OCP(=O)(O)O` was run?
Answer: > 5 µM

Question: For `CNCC(=O)OCc1cccnc1N(C)C(=O)OC(C)[n+]1cnn(C[C@](O)(c2cc(F)ccc2F)[C@@H](C)c2nc(-c3ccc(C#N)cc3)cs2)c1` (stereo partly drawn), which IC50 is on record?
Answer: > 5 µM

Question: For `CCOC(=O)/C=C/[C@H](C[C@@H]1CCNC1=O)NC(=O)[C@H](CC)n1cccc(NC(=O)c2cc(C)on2)c1=O`, which IC50 is on record?
Answer: > 5 µM

Question: Which IC50 does the source give for `NC(=O)c1ccc(I)c([N+](=O)[O-])c1` here?
Answer: > 5 µM

Question: Which IC50 does the source give for `O=S(=O)(Nc1cccc2cccnc12)c1ccccc1` here?
Answer: > 5 µM

Question: How did the IC50 turn out when `Cn1c2ccccc2c(=O)c2c(O)cccc21` was run?
Answer: > 5 µM

Question: For `CCc1oc2ccccc2c1C(=O)c1ccc(O)cc1`, which IC50 is on record?
Answer: > 5 µM

Question: Which IC50 does the source give for `O=c1ccc2ncc(=O)n3c2n1CC3CN1CCC(NCc2cc3c(cn2)OCCC3)CC1` (stereo not drawn) here?
Answer: > 5 µM

Question: `N#C/C(=C1/SC[C@H](c2ccc(Cl)cc2Cl)S1)n1ccnc1` was tested. Which IC50 did it give?
Answer: > 5 µM

Question: With `C[C@H](c1cccc2ccccc12)N(C)Cc1ccccc1` as the compound, how does the IC50 read?
Answer: > 5 µM

Question: Which IC50 does the source give for `O=C(/C=C/n1cnc(-c2cc(C(F)(F)F)cc(C(F)(F)F)c2)n1)NNc1cnccn1` here?
Answer: > 5 µM

Question: For `c1cc(CN2CCCNCCNCCCNCC2)ccc1CN1CCCNCCNCCCNCC1`, which IC50 is on record?
Answer: > 5 µM

Question: How did the IC50 turn out when `O=C(NC12CC3CC(CC(C3)C1)C2)c1cc2ccccc2[nH]1` was run?
Answer: > 5 µM

Question: `N[C@@H]1CN(c2c(F)cc3c(=O)c(C(=O)O)cn([C@@H]4C[C@@H]4F)c3c2Cl)CC12CC2` was tested. Which IC50 did it give?
Answer: > 5 µM

Question: For `CNc1nc(=O)[nH]cc1F`, which IC50 is on record?
Answer: > 5 µM

Question: `CC(C)Oc1cccc(NC(=O)c2ccccc2C(F)(F)F)c1` was tested. Which IC50 did it give?
Answer: > 5 µM

Question: For `NC(=O)C(c1ccccc1)(c1ccccc1)[C@H]1CCCN(CCc2ccc3c(c2)CCO3)C1`, which IC50 is on record?
Answer: > 5 µM

Question: `Nc1nc2c(Cc3cccnc3)c[nH]c2c(=O)[nH]1` was tested. Which IC50 did it give?
Answer: > 5 µM

Question: How did the IC50 turn out when `Cc1c(F)cccc1NC(=O)Nc1ccc(Cl)c(S(=O)(=O)[C@H]2CCCNC2)c1O` was run?
Answer: > 5 µM

Question: Which IC50 does the source give for `O=C(Nc1[nH]c(=O)ncc1F)c1ccccc1` here?
Answer: > 5 µM

Question: `O=C(NCc1ncc(C(F)(F)F)cc1Cl)c1c(Cl)cccc1Cl` was tested. Which IC50 did it give?
Answer: > 5 µM

Question: Which IC50 does the source give for `NC[C@H]1O[C@H](O[C@H]2[C@H](O)[C@@H](O[C@H]3O[C@H](CO)[C@@H](O)[C@H](N)[C@H]3O)[C@H](N)C[C@@H]2N)[C@H](N)C[C@@H]1O` here?
Answer: > 5 µM

Question: `COc1cc(Cc2cc(N)nc(N)n2)cc(OC)c1OC` was tested. Which IC50 did it give?
Answer: > 5 µM

Question: Which IC50 does the source give for `COc1cc(Cc2cnc(N)nc2N)c2c(c1OC)OC(C1CC1)C=C2` (stereo not drawn) here?
Answer: > 5 µM

Question: For `O=C(O)c1ccc(-c2ccc(O[C@H]3O[C@H](CO)[C@@H](O)[C@H](O)[C@@H]3O)cc2)cc1`, which IC50 is on record?
Answer: > 5 µM

Question: For `CC(C)(C)NC(=O)[C@@H]1C[C@@H]2CCCC[C@@H]2CN1C[C@@H](O)[C@H](Cc1ccccc1)NC(=O)[C@H](CC(N)=O)NC(=O)c1ccc2ccccc2n1`, which IC50 is on record?
Answer: > 5 µM

Question: With `[N-]=[N+]=N[C@H]1C[C@H](n2ccc(=O)[nH]c2=O)O[C@@H]1CO` as the compound, how does the IC50 read?
Answer: > 5 µM

Question: Which IC50 does the source give for `OC[C@@H]1CC[C@H](n2cnc3c(O)ncnc32)O1` here?
Answer: > 5 µM

Question: How did the IC50 turn out when `O=C(N[C@H](Cc1cccc2ccccc12)C(=O)NCCc1c[nH]cn1)C1Cc2ccccc2C1` was run?
Answer: > 5 µM

Question: `CC(C)C(=O)N[C@H]1[C@H]([C@H](O)[C@H](O)CO)OC(C(=O)O)=C[C@@H]1N=[N+]=[N-]` was tested. Which IC50 did it give?
Answer: > 5 µM

Question: `CCc1nc2ccc(Cl)cn2c1C(=O)NCc1ccc(N2CCC(c3ccc(OC(F)(F)F)cc3)CC2)cc1` was tested. Which IC50 did it give?
Answer: > 5 µM

Question: For `OCCCCn1cnc2c(O)nc(NCc3ccc(Cl)c(Cl)c3)nc21`, which IC50 is on record?
Answer: > 5 µM

Question: For `CCCCSc1nc(N)c2[nH]c(=O)c(=O)n(Cc3ccccc3)c2n1`, which IC50 is on record?
Answer: > 5 µM

Question: For `O=S(=O)(NCB(O)O)c1cc2c(Cl)ccc(Cl)c2s1`, which IC50 is on record?
Answer: > 5 µM

Question: `CN(C)CC(=O)Nc1ccc2[nH]c(=O)c3ccccc3c2c1` was tested. Which IC50 did it give?
Answer: > 5 µM

Question: For `CCc1cc(CCC(=O)Nc2ccccc2O)c(=O)[nH]c1C`, which IC50 is on record?
Answer: > 5 µM

Question: Which IC50 does the source give for `O=C(Nc1ccccc1)N(Cc1cc(Br)ccc1O)c1ccc(F)cc1` here?
Answer: > 5 µM

Question: Which IC50 does the source give for `Cc1nc2ccc(Cl)cc2c(-c2ccccc2)c1CC(=O)O` here?
Answer: > 5 µM

Question: How did the IC50 turn out when `O=C(c1ccc(F)cc1)N1CCN2C(=O)c3ccccc3C12c1ccccc1` (stereo not drawn) was run?
Answer: > 5 µM

Question: How did the IC50 turn out when `C[C@@]1(O)[C@H](O)[C@@H](CO)O[C@H]1n1ccc2c(N)ncnc21` was run?
Answer: > 5 µM

Question: How did the IC50 turn out when `NCc1ccc(S(N)(=O)=O)cc1` was run?
Answer: > 5 µM

Question: How did the IC50 turn out when `CSc1ccc2c(c1)C(N1CCN(C)CC1)Cc1ccccc1S2` (stereo not drawn) was run?
Answer: > 5 µM

Question: With `O=c1cc(Nc2ccc3ccccc3c2)[nH]c(=O)[nH]1` as the compound, how does the IC50 read?
Answer: > 5 µM

Question: `O=C(Nc1ccc(-c2ccccc2)cc1)C1=C(O)C(Cc2ccccc2)OC1=O` (stereo not drawn) was tested. Which IC50 did it give?
Answer: > 5 µM

Question: For `COc1cc(C(C)(C)CCCC(C)C)cc(OC)c1OC`, which IC50 is on record?
Answer: > 5 µM

Question: For `O=C(N[C@H](CCS)C(=O)N[C@H](Cc1ccccc1)C(=O)O)c1cc2ccccc2[nH]1`, which IC50 is on record?
Answer: > 5 µM

Question: Which IC50 does the source give for `C[C@@H](NC(=O)c1ccccc1-c1ccccc1)B(O)O` here?
Answer: > 5 µM

Question: With `FC(F)(F)Oc1ccc(Nc2ccc3cccc(Cl)c3n2)cc1` as the compound, how does the IC50 read?
Answer: > 5 µM

Question: For `C[C@@H](O)[C@H](N)C(=O)NS(=O)(=O)c1cccc(-c2ccc3[nH]ncc3c2)c1`, which IC50 is on record?
Answer: > 5 µM

Question: For `COc1ccccc1CN[C@H]1C2CCN(CC2)[C@H]1C(c1ccccc1)c1ccccc1`, which IC50 is on record?
Answer: 2.23 µM
